Test results from publication PMC12191924, “A new naphthalene-based fluorogenic substrate for cytochrome P450 4A11” (Biochemical Journal, 2025).
Entries after “also recorded” stand apart in the source; their conditions may differ.

Test system: 16 human microsomal P450 enzymes
Experiment: Probing MONACRA metabolism by 16 recombinant human P450 enzymes
Assay type: biochemical
Details: CYP1A2, 2A6, 2B6, 2C8, 2C9, 2C19, 2D6, 2E1, 2J2, 3A4, 3A5, 4A11, 4F2, 4F3A, 4F3B, 4F12
Protocol: Based on these observations, we developed a high-throughput automated assay applicable for studying SSPs of MONACRA metabolism by microsomal P450 enzymes. In this procedure, the incubation mixtures containing an NADPH-generating system and various substrate concentrations are placed in a multiwell plate and preincubated at 30°C in a thermostated shaker. The reaction is started by adding microsomal suspension to the final concentration of 0.3–1 mg/ml of microsomal protein or 0.02–0.1 µM of recombinant P450 enzymes in Supersomes. Following the incubation for 20 min at 30°C, the reaction is quenched by adding trichloroacetic acid (final concentration […]). After supplementing the wells with Na-glycine buffer (pH 10.4, final concentration 2.1 M), the plates are subjected to scanning the fluorescence spectra with excitation at 375 nm. This assay, which is described in detail in Materials and Methods, allows reliable detection of the concentrations of HONACRA as low as 0.1 µM.
We used the high-throughput activity assay described above to probe MONACRA metabolism by 16 human microsomal P450 enzymes, namely CYP1A2, CYP2A6, CYP2B6, CYP2C8, CYP2C9, CYP2C19, CYP2D6, CYP2E1, CYP2J2, CYP3A4, CYP3A5, CYP4A11, CYP4F2, CYP4F3A, CYP4F3B, and CYP4F12. […]

## COc1ccc2cc(C=CC(=O)O)ccc2c1 [MONACRA, 3-(6-methoxynaphthalen-2-yl)acrylic acid]
  activity in MONACRA demethylation among 16 recombinant human P450 enzymes: noticeable demethylation activity only with CYP4A11 and CYP1A2; also recorded: detectable activity in MONACRA demethylation was observed only with CYP4A11, CYP1A2, and CYP2C8
